Test system: HSC-T6 cells
Conditions: 96-well plate, excitation 560 nm, emission 590 nm, FIGS. 8-9, comparison with non-retinoid composition
Description: HSC-T6 cells, which express a vitamin A binding protein receptor, were seeded one day prior to experiment in a 96-well plate (100 μL culture medium per well). […] The solutions were diluted with culture medium and incubated for 15 minutes at room temperature. 15 μL was added to the cells. After incubating the cells in solution, the culture medium was removed. Cells were washed once with DPBS and fresh culture medium was added (100 μL culture medium per well). Absorbance (excitation and emission wavelengths were 560 nm and 590 nm, respectively) was read by a BioTek FLx800 96-well plate fluorescence reader and recorded.

Substance: Texas Red-Dextran-Retinoid
- cell uptake (absorbance; greater absorbance indicates greater cell uptake): greater cellular uptake than the oleic acid composition

— patent US20100028416A1, “DRUG CARRIERS” (Nitto Denko Corporation, priority 2008, published 2010)
